Common to all, as to conditions: labelled compound; 5 mM MgCl2, 50 mM KCl, Tris-HCl pH 8.0, 37 °C
Experiment [1] has as its target RK2 KorB (Escherichia coli, UniProt P07674).
The target in experiment [2] is P1 ParB (Punavirus P1, UniProt Q38420).
Experiment [3] addresses ICE1056Fin (Haemophilus influenzae, UniProt A0A8I2XW01).

Chain of P1 ParB (Q38420 1-333): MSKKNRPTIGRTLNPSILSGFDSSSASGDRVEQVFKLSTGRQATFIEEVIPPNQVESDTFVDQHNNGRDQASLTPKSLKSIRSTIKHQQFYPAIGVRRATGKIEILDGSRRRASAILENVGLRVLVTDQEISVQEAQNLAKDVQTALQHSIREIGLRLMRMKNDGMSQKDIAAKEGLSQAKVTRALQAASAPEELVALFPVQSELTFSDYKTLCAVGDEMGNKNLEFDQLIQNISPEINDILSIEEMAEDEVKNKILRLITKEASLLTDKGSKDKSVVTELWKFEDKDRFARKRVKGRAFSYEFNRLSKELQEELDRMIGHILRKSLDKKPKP
Chain of RK2 KorB (P07674 whole entry): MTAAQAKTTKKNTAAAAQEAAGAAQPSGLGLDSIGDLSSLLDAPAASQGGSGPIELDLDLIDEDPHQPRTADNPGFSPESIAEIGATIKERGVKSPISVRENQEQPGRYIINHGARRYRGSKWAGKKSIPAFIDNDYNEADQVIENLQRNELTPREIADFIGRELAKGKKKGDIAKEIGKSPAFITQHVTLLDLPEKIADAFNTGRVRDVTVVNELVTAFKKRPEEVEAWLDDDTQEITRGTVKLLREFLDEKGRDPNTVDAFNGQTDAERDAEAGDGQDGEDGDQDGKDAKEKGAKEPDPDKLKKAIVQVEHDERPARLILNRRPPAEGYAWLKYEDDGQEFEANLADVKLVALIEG
Chain of ICE1056Fin (A0A8I2XW01 1-185): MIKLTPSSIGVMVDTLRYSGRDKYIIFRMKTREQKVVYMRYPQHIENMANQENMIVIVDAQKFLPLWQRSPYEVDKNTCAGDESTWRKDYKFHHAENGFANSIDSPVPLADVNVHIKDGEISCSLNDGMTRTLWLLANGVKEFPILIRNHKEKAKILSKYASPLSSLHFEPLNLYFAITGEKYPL

On to `Nc1ncnc2c1ncn2[C@@H]1O[C@H](COP(=O)(O)OP(=O)(O)OP(=O)(O)O)[C@@H](O)[C@H]1O` [ATP], for which the “TLC ATPase assay, γ-phosphate release” value in experiment [1] was “ICE1056Fin, P1 ParB and RK2 KorB also exhibited comparable ATPase activity”; in experiment [2], “ICE1056Fin, P1 ParB and RK2 KorB also exhibited comparable ATPase activity”; in experiment [3] it was “ICE1056Fin, P1 ParB and RK2 KorB also exhibited comparable ATPase activity”.

These data come from article PMC4241021 (Nature communications, 2014).
